According to ChEMBL document CHEMBL5729261, “AMPK activators” (2022):

Molecular target: AMP-activated protein kinase (AMPK) alpha-1/beta-1/gamma-1 (Homo sapiens, UniProt P54619+Q13131+Q9Y478)
Assay: In Vitro pAMPK1 Kinase Activation Assay: Compound effect on AMPK enzyme activation was determined in a cell-free format with a 12-point concentration curve. The ADP-Glo detection system was used to determine phosphorylation of a SAMS peptide substrate. Recombinant AMPK α1/β1/γ1 complex was pre-activated by phosphorylation with CAMKK2 followed by incubated with compound for 15 minutes prior to the SAMS phosphorylation reaction. Activity curves and EC50 values were fitted by interpolation to an ATP:ADP standard curve as indicated by the ADP-Glo manufacturer using Prism software.
Format: protein-complex assay

Sequence of AMP-activated protein kinase (AMPK) alpha-1/beta-1/gamma-1 (P54619 whole entry): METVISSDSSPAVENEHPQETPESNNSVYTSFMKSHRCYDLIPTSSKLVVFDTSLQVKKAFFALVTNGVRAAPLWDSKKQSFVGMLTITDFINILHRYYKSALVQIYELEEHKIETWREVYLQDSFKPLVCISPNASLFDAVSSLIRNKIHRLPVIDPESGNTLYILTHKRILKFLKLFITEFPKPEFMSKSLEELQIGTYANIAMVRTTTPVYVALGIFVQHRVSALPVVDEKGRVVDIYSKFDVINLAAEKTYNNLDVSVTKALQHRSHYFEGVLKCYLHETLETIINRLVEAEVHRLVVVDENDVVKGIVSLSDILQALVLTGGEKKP
Sequence of AMP-activated protein kinase (AMPK) alpha-1/beta-1/gamma-1 (Q9Y478 whole entry): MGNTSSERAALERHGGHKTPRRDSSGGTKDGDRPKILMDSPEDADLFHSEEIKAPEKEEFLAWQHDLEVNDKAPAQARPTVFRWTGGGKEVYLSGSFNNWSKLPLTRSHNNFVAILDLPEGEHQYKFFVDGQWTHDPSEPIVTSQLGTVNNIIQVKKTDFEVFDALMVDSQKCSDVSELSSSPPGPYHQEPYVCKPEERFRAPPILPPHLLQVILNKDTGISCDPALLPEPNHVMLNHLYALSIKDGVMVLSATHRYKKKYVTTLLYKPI
Sequence of AMP-activated protein kinase (AMPK) alpha-1/beta-1/gamma-1 (Q13131 whole entry): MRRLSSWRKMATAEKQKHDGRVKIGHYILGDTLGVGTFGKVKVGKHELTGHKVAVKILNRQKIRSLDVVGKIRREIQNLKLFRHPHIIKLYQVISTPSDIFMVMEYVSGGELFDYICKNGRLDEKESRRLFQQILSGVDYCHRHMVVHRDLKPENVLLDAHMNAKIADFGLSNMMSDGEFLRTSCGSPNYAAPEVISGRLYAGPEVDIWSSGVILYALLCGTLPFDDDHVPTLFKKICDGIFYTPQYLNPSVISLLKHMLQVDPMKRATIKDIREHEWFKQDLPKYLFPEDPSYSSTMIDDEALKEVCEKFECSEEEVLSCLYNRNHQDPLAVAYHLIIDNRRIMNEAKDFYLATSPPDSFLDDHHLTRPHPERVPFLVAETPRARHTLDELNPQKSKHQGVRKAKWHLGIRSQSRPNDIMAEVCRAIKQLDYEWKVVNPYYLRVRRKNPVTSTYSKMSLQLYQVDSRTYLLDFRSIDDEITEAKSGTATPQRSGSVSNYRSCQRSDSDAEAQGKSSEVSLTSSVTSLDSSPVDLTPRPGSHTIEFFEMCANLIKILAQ

| EC50 [nM] | Structure (SMILES) |
| --- | --- |
| 0.76 | O=C(NCC[N+]12CCN(CC1)CC2)c1ccc(-c2ccc(-c3cc4nc(O[C@@H]5CO[C@H]6[C@@H]5OC[C@H]6O)[nH]c4cc3Cl)cc2)cc1 |
| 1.08 | OCC(CO)NCc1ccc(-c2ccc(-c3cc4nc(O[C@@H]5CO[C@H]6[C@@H]5OC[C@H]6O)[nH]c4cc3Cl)cc2)cc1 |
| 0.96 | O=C(NCCC[N+]12CCN(CC1)CC2)c1ccc(-c2ccc(-c3cc4nc(O[C@@H]5CO[C@H]6[C@@H]5OC[C@H]6O)[nH]c4cc3Cl)cc2)cc1 |
| 1.51 | O=S(=O)(NCCOCCO)c1ccc(-c2ccc(-c3cc4nc(O[C@@H]5CO[C@H]6[C@@H]5OC[C@H]6O)[nH]c4cc3Cl)cc2)cc1 |
